The values that follow come from paper PMC12631006, “Gold‐Dithiocarbamato Glycoconjugates as Potential Anticancer Agents: Design, Physico‐Chemical Characterization, and In Vitro Biological Activity” (Chembiochem, 2025).

Data set [1] has as its system RC‐124 cells. The experiment in a line: Cell growth inhibition assay (Crystal Violet), non-tumor reference. Format: cell-based, human. Particulars: RC‐124 non‐malignant kidney epithelial cells, 96 h incubation, mean ± SD of three independent experiments. On the procedure:
(§1) The capability of the gold(III) complexes Au1‐5, the gold(I)‐phosphine derivatives AuP1‐5, and the gold(I)‐carbene counterparts AuC1‐5 to inhibit cell proliferation was assayed on three human tumor cell lines, namely, colorectal adenocarcinoma (HT‐29), metastatic breast adenocarcinoma (MDA‐MB‐231), and breast adenocarcinoma (MCF‐7) cells, whereas human non‐malignant kidney epithelial (RC‐124) cells were used as non‐tumor reference cell line. […]
Human non-malignant kidney epithelial (RC-124) cells were maintained in McCoy’s 5A Medium (modified to contain 1.5 mM L-glutamine and 2.2 g L-1 sodium bicarbonate; Life Technologies).
(§2) Cells were cultured at 37°C in 5% CO2 and moisture-enriched atmosphere in the respective medium […]
(Biochrom) and passaged once a week.
For experiments involving RC-124 cells, microtiter plates were pre-treated as follows. 30 µL of a 1.5% m/v sterilized gelatine solution were added to each well of flat-bottomed 96-well plates, plates were covered with their lids and incubated for 1 h at 37°C. The excess solution was then removed, wells were washed with PBS solution (pH 7.4), and new cell culture medium was added.
(§3) Cell growth inhibition assay
(§4) Stock solutions of the gold(III) complexes Au1-5, and the gold(I) complexes AuP1-5 and AuC1-5 in DMF were freshly prepared and subsequently diluted with the appropriate complete cell culture medium […]
(§5) The in vitro antiproliferative activity of the various gold complexes was determined following a modified protocol previously reported.[68] 100 µL of HT-29 cells (2.5×10^3 cells mL-1), MDA-MB-231 cells […]
(§6) in 96-well cell culture plates and incubated at 37°C in 5% CO2 humidified atmosphere (note: for RC-124, pre-treated plates were used as mentioned above). After 72 h (MDA-MB-231, MCF-7, RC-124) or 48 h (HT-29), cells were treated with the test compounds at different concentrations (0.01-50 µM) and incubated for further 72 h (HT-29) or 96 h (MDA-MB-231, MCF-7, RC-124) at 37°C. The medium was then discarded, cells were washed with fresh PBS solution and harvested, and the Crystal Violet (Sigma-Aldrich/Merck) staining assay was performed to determine cell viability. The inhibition of cell growth induced by the tested compounds was assessed by measuring the absorbance of each well at 590 nm using a Victor X4 microplate reader (Perkin Elmer). Antiproliferative data are expressed as IC50 values, that is, the concentration (μM) of the test agent inhibiting cell proliferation by 50% compared with untreated […]
(§7) control cultures. […]

In data set [2] the test system is MCF‐7 cells. As to the kind of experiment: Cell growth inhibition assay (Crystal Violet). Format: cell-based, human. Particulars: MCF‐7 breast adenocarcinoma cells, 96 h incubation, mean ± SD of three independent experiments. As to the method:
as §1
(§8) high-glucose Dulbecco’s Modified Eagle’s Medium (4.5 g L-1 D-glucose, 4 mM L-glutamine, 1 mM sodium pyruvate, 1.5 g L-1 sodium bicarbonate; Life Technologies). […]
as §2
(§9) (Biochrom) and passaged once a week. […]
as §3, §4, §5, §6, §7

Data set [3] concerns MDA‐MB‐231 cells. The experiment in a line: Cell growth inhibition assay (Crystal Violet). In kind it is cell-based, human. Conditions: MDA‐MB‐231 metastatic breast adenocarcinoma cells, 96 h incubation, mean ± SD of three independent experiments. As to the method: as §1, §8, §2, §9, §3, §4, §5, §6, §7
Data set [4] concerns HT‐29 cells. As to the kind of experiment: Cell growth inhibition assay (Crystal Violet). Format: cell-based, human. Particulars: HT‐29 colorectal adenocarcinoma cells, 72 h incubation, mean ± SD of three independent experiments. As to the method:
as §1, §8, §2, §9, §3, §4, §5, §6, §7

Data set [5] has as its system HT‐29, MDA‐MB‐231 and MCF‐7 cells. As to the kind of experiment: Cell growth inhibition, stated over all tested tumor cell lines. In kind it is cell-based, human. Conditions: HT‐29, MDA‐MB‐231, MCF‐7. On the procedure: as §1, §8, §2, §9
Cell growth inhibition assay […]
(§10) The in vitro antiproliferative activity of the various gold complexes was determined following a modified protocol previously reported.[68] […]
in 96-well cell culture plates and incubated at 37°C in 5% CO2 humidified atmosphere (note: for RC-124, pre-treated plates were used as mentioned above). […] The inhibition of cell growth induced by the tested compounds was assessed by measuring the absorbance of each well at 590 nm using a Victor X4 microplate reader (Perkin Elmer). […]

For data set [6], the system named is MCF‐7 cells. The experiment in a line: Cellular uptake of gold (HR‐CS AAS). Format: cell-based, human. Conditions: 10 μM, 6 h. On the procedure:
It is often assumed that the antiproliferative activity of gold complexes is strongly linked to the efficiency of their cellular uptake and internalization. Moreover, glycoconjugates are commonly believed to enter cells through GLUTs, which, as discussed earlier, are generally over‐expressed in several cancer cells. In particular, GLUT1 is crucial for the uptake of glucose by breast cancer cells, including MDA‐MB‐231 and MCF‐7.^[ [70] ^] […] The gold levels were determined by high‐resolution continuum‐source atomic absorption spectroscopy (HR‐CS AAS) after exposure to 10 μM concentration of the selected compounds over 6 h using either a high‐glucose‐contents or glucose‐free cell culture medium. […]
as §10
in 96-well cell culture plates and incubated at 37°C in 5% CO2 humidified atmosphere (note: for RC-124, pre-treated plates were used as mentioned above). […] The inhibition of cell growth induced by the tested compounds was assessed by measuring the absorbance of each well at 590 nm using a Victor X4 microplate reader (Perkin Elmer). […] Results were calculated as the mean values ± standard deviation (SD) of three […]

Data set [7] is described as follows: Stability in PBS by UV–Vis. In kind it is physicochemical. Particulars: PBS pH 7.4, 37°C, 25 μM, UV–Vis over time. On the procedure:
DMSO and DMF are solvents commonly used to prepare stock solutions of metal complexes prior to performing biological studies, especially if poorly soluble in aqueous media. […] However, to mimic a physiological‐like environment, stability studies in phosphate‐buffered saline (PBS) solution at pH 7.4 and 37°C were carried out for the various gold complexes by UV–Vis spectrophotometry.

Consider `O=C(NC1C(O)OC(CO)C(O)C1O)C1CCN(C2=[S+][Au-]([Br])([Br])[S]2)CC1` (mixture of isomers) [Au3, [Au^IIIBr2(SSC‐Inp‐GlcN1)]], for which the IC50 in data set [1], in data set [2], in data set [3] and in data set [4] was above 50 µM throughout.

For the compound `CCn1[c]([Au-][S]C(=S)N2CCC(C(=O)NC3C(O)OC(CO)C(O)C3O)CC2)[n+](CC)c2ccccc21` (mixture of isomers) [AuC3, [Au^I(SSC‐Inp‐GlcN1)(Et2BzImy)]], the values for the IC50 in data set [2], in data set [3] and in data set [4] were 12.3 ± 1.4 µM, 11.5 ± 0.6 µM and 22.7 ± 1 µM, respectively.

As to `O=C(NC1C(O)OC(CO)C(O)C1O)C1CCN(C(=S)[S][Au][PH](c2ccccc2)(c2ccccc2)c2ccccc2)CC1` (mixture of isomers) [AuP3, [Au^I(SSC‐Inp‐GlcN1)(PPh3)]], the IC50 (usually the concentration needed to halve the response being measured) in data set [2] worked out at 2.6 ± 0.4 µM; in data set [3], 2.4 ± 0.8 µM; in data set [4] it was 8.8 ± 1.6 µM.

Turning to `CCOC(=O)C1CCN(C2=[S+][Au-]([Br])([Br])[S]2)CC1` [Au1, [Au^IIIBr2(SSC‐Inp‐OEt)]], the half-inhibitory concentration (IC50) in data set [1] amounted to 0.6 ± 0.1 µM; in data set [2] it was 0.8 ± 0.1 µM; in data set [3], 1.4 ± 0.2 µM; in data set [4], 1.2 ± 0.2 µM. Also, the “IC50 values over the tested tumor cell lines” value in data set [5] is given as “low micromolar range”.

On to `NC(=O)C1CCN(C2=[S+][Au-]([Br])([Br])[S]2)CC1` [Au2, [Au^IIIBr2(SSC‐Inp‐NH2)]], for which the IC50 in data set [1] turned out to be 9.9 ± 0.8 µM; in data set [2] it was 5.1 ± 1 µM; in data set [3], 8.9 ± 1.1 µM; in data set [4], 20.1 ± 0.1 µM. Also, the “Gold content (intracellular gold)” value in data set [6] (with or without glucose (4.5 g L^−1) and with or without Cytochalasin B 50 μM) is given as “consistently similar cellular uptake values”. Further, the “IC50 values over the tested tumor cell lines” value in data set [5] is on record as “low micromolar range”.

For `CO[C@H]1O[C@H](CO)[C@@H](O)[C@H](O)[C@H]1NC(=O)C1CCN(C2=[S+][Au-]([Br])([Br])[S]2)CC1` [Au4, [Au^IIIBr2(SSC‐Inp‐GlcN2)]], the IC50 was 48.2 ± 13.2 µM in data set [1], above 50 µM in data set [2], above 50 µM in data set [3] and above 50 µM in data set [4]. In data set [6] (not statistically significant), the “Gold uptake in glucose‐ and Cytochalasin B‐free medium versus conditions with glucose, Cytochalasin B, or both” value is “slightly higher”.

Take `CO[C@H]1O[C@H](CNC(=O)C2CCN(C3=[S+][Au-]([Br])([Br])[S]3)CC2)[C@@H](O)[C@H](O)[C@H]1O` [Au5, [Au^IIIBr2(SSC‐Inp‐GlcN3)]]: the concentration for half-maximal inhibition (IC50) is 18.8 ± 1.7 µM in data set [1], above 50 µM in data set [2], above 50 µM in data set [3] and above 50 µM in data set [4].

With `CCOC(=O)CN(C)C(=S)[S][Au]=[c]1n(CC)c2ccccc2n1CC` [AuC1, [Au^I(SSC‐Sar‐OEt)(Et2BzImy)]], the IC50 came to 0.6 ± 0.1 µM in data set [1], 0.5 ± 0.1 µM in data set [2], 0.8 ± 0.1 µM in data set [3] and 1 ± 0.1 µM in data set [4].

On to `CCn1[c]([Au-][S]C(=S)N2CCC(C(N)=O)CC2)[n+](CC)c2ccccc21` [AuC2, [Au^I(SSC‐Inp‐NH2)(Et2BzImy)]], for which the half-maximal inhibitory concentration (IC50) came out at 4.9 ± 0.6 µM in data set [2], 4.7 ± 0.3 µM in data set [3] and 6.4 ± 1.3 µM in data set [4].

Take `CCn1[c]([Au-][S]C(=S)N2CCC(C(=O)N[C@H]3[C@@H](OC)O[C@H](CO)[C@@H](O)[C@@H]3O)CC2)[n+](CC)c2ccccc21` [AuC4, [Au^I(SSC‐Inp‐GlcN2)(Et2BzImy)]]: the values for the IC50 in data set [2], in data set [3] and in data set [4] were 10.3 ± 0.3 µM, 10.5 ± 0.4 µM and 11.3 ± 0.4 µM, respectively.

Turning to `CCn1[c]([Au-][S]C(=S)N2CCC(C(=O)NC[C@H]3O[C@H](OC)[C@H](O)[C@@H](O)[C@@H]3O)CC2)[n+](CC)c2ccccc21` [AuC5, [Au^I(SSC‐Inp‐GlcN3)(Et2BzImy)]], the IC50 amounted to 10.6 ± 0.6 µM in data set [2], 9.6 ± 1.5 µM in data set [3] and 11.8 ± 1.1 µM in data set [4]. Besides, the “Stability in PBS” value in data set [7] is reported as “major spectral changes occur soon after dissolution”.

For `CCOC(=O)C1CCN(C(=S)[S][Au][PH](c2ccccc2)(c2ccccc2)c2ccccc2)CC1` [AuP1, [Au^I(SSC‐Inp‐OEt)(PPh3)]], the IC50 is 0.2 ± 0.1 µM in data set [2], 0.6 ± 0.2 µM in data set [3] and 0.5 ± 0.1 µM in data set [4].

Turning to `NC(=O)C1CCN(C(=S)[S][Au][PH](c2ccccc2)(c2ccccc2)c2ccccc2)CC1` [AuP2, [Au^I(SSC‐Inp‐NH2)(PPh3)]], the IC50 was 1.3 ± 0.1 µM in data set [2], 1.4 ± 0.3 µM in data set [3] and 2.9 ± 0.7 µM in data set [4].

Take `CO[C@H]1O[C@H](CO)[C@@H](O)[C@H](O)[C@H]1NC(=O)C1CCN(C(=S)[S][Au][PH](c2ccccc2)(c2ccccc2)c2ccccc2)CC1` [AuP4, [Au^I(SSC‐Inp‐GlcN2)(PPh3)]]: the IC50 in data set [2] is 2.4 ± 0.4 µM; in data set [3], 2.4 ± 0.7 µM; in data set [4] it was 6.3 ± 0.5 µM.

As to `CO[C@H]1O[C@H](CNC(=O)C2CCN(C(=S)[S][Au][PH](c3ccccc3)(c3ccccc3)c3ccccc3)CC2)[C@@H](O)[C@H](O)[C@H]1O` [AuP5, [Au^I(SSC‐Inp‐GlcN3)(PPh3)]], the figures for the 50% inhibitory concentration (IC50) in data set [2], in data set [3] and in data set [4] were 2.5 ± 0.4 µM, 2.5 ± 0.5 µM and 6.7 ± 1.1 µM, respectively.
